The values below come from patent US9334487B2, “Methods for diagnosing rheumatoid arthritis” (Imperial Innovations Limited, priority 2007, dated 2016).

Test [1] has as its system serum antibodies of RA patients and healthy controls. The following applies: seven patients; cited from earlier work.
Test [2] deals with serum antibodies of SLE patients. Briefly: ELISA of SLE patient sera on α-enolase peptides (Example 2). Type of test: binding, human. The following applies: 29 SLE patients; OD450 below 0.1 negative. The protocol:
Sera from 29 patients diagnosed with systemic lupus erythromatosus (SLE) were tested by ELISA for reactivity with 11 citrullinated α-enolase peptides, namely Peptide 1A, 1B, 1D and Peptides 2 to 9 as shown in Table 1. The ELISA assay was as described in Example 1.
The quantity of antibody, from each patient sample, binding to each peptide, is reflected by the OD (450 nm) in the ELISA assay. The OD (450 nm) corresponding to the background (buffer only) was subtracted. The results, after subtraction of background, are depicted in FIG. 8A. All OD (450 nm) values below 0.1 were considered negative (=0).

Test [3] has as its system serum IgG of RA patients, disease controls and healthy controls. Kind of test: ELISA for IgG antibodies to cyclic α-enolase peptides, UK cohort sera. The test is classed as binding, human. The following applies: for % positive, RA (n = 102): UK cohort RA sera; for % positive, RA (n = 102) / % positive, Disease controls (n = 110) / % positive, Healthy controls (n = 92): cut-off OD450 = 0.1. The text has this:
(§1) Serum samples were obtained with informed consent and ethical approval from 102 patients with RA and 92 (or 110 patients for the results generally shown in FIGS. 9 to 16) patients with other arthritidies (including systemic lupus erythematosus (n=32), Sjogrens syndrome (n=31), psoriatic arthritis (n=5), Behçet's syndrome (n=18; FIGS. 9 to 16) and miscellaneous other rheumatic diseases (n=24). 92 control serum samples were obtained from healthy volunteers. An additional cohort of 24 patients with RA undergoing treatment with either methotrexate (MTX) alone (n=13) or methotrexate in combination with Infliximab (INF) (n=11) were collected before treatment as well as 6, 18 and 52 weeks post treatment. Disease activity score (DAS 28), erythrocyte sedimentation rate (ESR) and C-reactive protein (CRP) were measured for each patient at the same time points, i.e. 0, 6, 18 an 52 weeks post treatment. All patients attended the Rheumatology Clinic at Charing Cross Hospital, London. An independent cohort from the US included serum samples from 81 RA patients, taken at baseline in a clinical trial at the Omaha Veterans Affairs Medical Centre, University of Nebraska, USA, and 82 serum samples from healthy volunteers. All RA patients met the American College of Rheumatology (ACR) classification criteria (43).
Fifteen cyclic 15 to 23-mer peptides were synthesised at Cambridge Research Biochemicals (Cleveland, UK). The peptide sequences corresponded to amino acid sequences in human α-enolase (SwissProt accession number P06733) or P. gingivalis enolase (SwissProt accession number AAQ66821), with the addition of cysteine residues at the amino- and carboxy-termini and the exchange of citrulline for arginine residues at certain positions, as shown in Tablet and Table 2 below.
(§2) 96-well plates (Maxisorp; Nunc, Roskilde, Denmark) were coated with α-enolase peptides at 10 μg/ml (diluted in a 50 mM carbonate buffer, pH 9.6), or with carbonate buffer alone, and incubated over night at 4° C. Wells were washed with PBS-Tween (0.05%) and blocked with 2% BSA (diluted in PBS) for 3 hours at room temperature. Sera were diluted 1:50 in RIA-buffer (10 mM Tris, 1% BSA, 350 mM NaCl, 1% Triton-X, 0.5% Na-deoxychlate, 0.1% SDS) supplemented with 10% FCS, added in duplicates and incubated for 1.5 hour at room temperature. Plates were washed as described above and incubated with peroxidase-conjugated mouse anti-human IgG (Hybridoma Reagent Laboratory, Baltimore, USA) (diluted 1:1000 in RIA-buffer, 10% FCS) for 1 hour at room temperature. After a final wash (PBS-Tween, 0.05%), bound antibodies were detected with TMB substrate (KPL, Maryland, USA). The reaction was stopped by the addition of 1M H2SO4 and absorbance measured at 450 nm in a Multiscan Ascent microplate reader (Thermo Labsystems). A control serum was included on all plates to correct for plate-to-plate variation. Background OD450 (wells coated with only carbonate buffer) was subtracted from peptide OD450 for every serum tested. Values above 0.1 were taken as positive. ELISA on the US serum samples were performed in a similar manner, but with 2% BSA in carbonate buffer as background, and with an OD cut-off of 0.2 for positive samples. Anti-CCP antibody status was analysed using the CCP2 kit (Eurodiagnostica, Malmo, Sweden), according to the manufacturer's instructions.
Background: In an ELISA, binding on a coated surface is turned into a signal by an enzyme label.

In test [4] the test system is anti-CEP-1 antibodies in anti-CEP-1 positive RA sera. Kind of test: Liquid phase inhibition of binding to CEP-1-coated plates. The following applies: six anti-CEP-1 positive RA sera pre-incubated with 0, 1, 10 and 100 μg/ml peptide. Set-up: species or system human. The protocol:
Inhibition experiments were performed in liquid phase on six anti-CEP-1 positive RA serum samples or on solid phase using serum from nine double positive (anti-CEP-1 and CCP positive) RA patients. Sera were either pre-incubated for 2 hours in RIA-buffer containing increasing concentrations (0, 1, 10 and 100 μg/ml) of CEP-1, control peptide 1D, peptide 4, peptide 7, peptide 9 or peptide 11, or pre-absorbed on plates coated with CEP-1, carbonate buffer alone or pre-absorbed on commercial CCP2 plates. To eliminate antigen-antibody complexes, the liquid phase mixtures were centrifuged at 13 000 rpm, for 15 minutes, before the supernatants were transferred to CEP-1-coated plates and assessed as described above Inhibition of binding to CEP-1, for serum samples pre-absorbed to CCP, was calculated in relation to the maximum inhibition, which by definition was set to 100% for samples pre-incubated with CEP-1.

Test [5] has as its system serum antibodies of RA patients and healthy controls grouped by CCP status. Kind of test: ELISA for reactivity with CEP-1, Swedish EIRA cohort (Example 3). Type of test: binding, human. The protocol: Sera from healthy controls and 511 rheumatoid arthritis patients from the Swedish EIRA (Epidemiological Investigation of Rheumatoid Arthritis) cohort (Stolt et al, Quantification of the influence of cigarette smoking on RA, Ann Rheum Dis, 2003; 62:835-841), were tested for antibodies to cyclic citrullinated peptides using the commercially available anti-CCP ELISA. At least 600 healthy controls were screened and, amongst these, a rare population that were CCP positive (n=16) were identified. Two of these CCP positive individuals have developed RA since the blood samples were collected.
Sera from the 511 rheumatoid arthritis patients, 16 CCP positive healthy controls and 126 CCP negative healthy controls were also screened by ELISA for reactivity with CEP-1 (Peptide 1A) as described in Example 1. The rheumatoid arthritis patients were divided into CCP positive (n=410) and CCP negative (n=101) groups.

Test [6] concerns serum IgG of RA patients and healthy controls (US cohort). Briefly: anti-CEP-1 antibody ELISA, independent US cohort. The test is classed as binding, human.
From the text: as §1
as §2, with “ELISA on the US serum samples were performed in a similar manner, but with 2% BSA in carbonate buffer as background, and with an OD cut-off of 0.2 for positive samples.” left out, “instructions. […]” for “instructions.”

Test [7] has as its system anti-Peptide 1A and anti-CCP antibodies in serum. Briefly: Serology over time in 24 RA patients treated with MTX or MTX+INF. Type of test: binding, human.
From the text: as §1, with “All patients attended the Rheumatology Clinic at Charing Cross Hospital, London. An independent cohort from the US included serum samples from 81 RA patients, taken at baseline in a clinical trial at the Omaha Veterans Affairs Medical Centre, University of Nebraska, USA, and 82 serum samples from healthy volunteers. All RA patients met the American College of Rheumatology (ACR) classification criteria (43).” left out
96-well plates (Maxisorp; Nunc, Roskilde, Denmark) were coated with α-enolase peptides at 10 μg/ml (diluted in a 50 mM carbonate buffer, pH 9.6), or with carbonate buffer alone, and incubated over night at 4° C. […] After a final wash (PBS-Tween, 0.05%), bound antibodies were detected with TMB substrate (KPL, Maryland, USA). The reaction was stopped by the addition of 1M H2SO4 and absorbance measured at 450 nm in a Multiscan Ascent microplate reader (Thermo Labsystems). […]

Test [8] is described as follows: Disease activity score DAS28 (CRP and ESR) in treated RA patients. The following applies: 6, 18 and 52 weeks post treatment; MTX n=13, MTX+INF n=11. The test is classed as in vivo, human.
From the text: as §1

The mark [9] stands for this setting: cut-off 98th percentile of controls.

“And” between values parts separate entries of the source, which are not always exact repeats. Equal entries are not always repeated. “Also recorded” adds a separate entry of the source. Bridges are numbered along the chain shown (N, C = ends). Where no end group is shown, it is not given here. [ ]: non-standard residue; d: D form. Cit = NC(=O)NCCC[C@H](N)C(=O)O

In the case of “non-citrullinated protein: whole non-citrullinated α-enolase protein”, in test [1], the “% of RA patients also recognizing the non-citrullinated protein” value is reported as 13%.

With “cf-X-sgkydldfkspddps-X-yc (CF[Cit]SGKYDLDFKSPDDPS[Cit]YC; disulfide 1-21 (inferred); listed as Homo sapiens) [Peptide 6, human α-enolase aa 252-270]”, the “% of SLE sera scored positive” value in test [2] worked out at 3.4%. Besides, the “% positive, RA (n = 102)” value in test [3] was determined as 12%. Moreover, in test [3] (UK cohort), the “% positive, Disease controls (n = 110)” value stood at 5% and the “% positive, Healthy controls (n = 92)” value amounted to 0%.

With “ckiha-X-eifds-X-gnptvec (CKIHA[Cit]EIFDS[Cit]GNPTVEC; disulfide 1-19 (inferred); listed as Homo sapiens) [Peptide 1A]”, the “inhibition of antibody binding to CEP-1-coated plates” value (shortened to “inhibition of antibody binding”) in test [4] was “dose dependent decrease; also recorded: dose-dependent inhibition”. In addition, in test [5] (Swedish EIRA cohort), the “% positive for anti-CEP-1 antibodies, CCP+ RA (n=410)” value is on record as “Sixty” and the “% positive for anti-CEP-1 antibodies, CCP− RA (n=101)” value is 17%. Also, in test [5] (Swedish cohort), the “% positive for anti-CEP-1 antibodies, CCP+ healthy controls (n=16)” value is listed as 25% and the “% positive for anti-CEP-1 antibodies, CCP− healthy controls (n=126)” value was 0.8%. For the same molecule, the “specificity, US cohort” value in test [6] (82 healthy controls, no disease controls) came to 98%. Further, in test [6] (setting [9]), the “% RA patients positive / sensitivity, US cohort (n=81)” value worked out at 62% and the “% healthy controls positive, US cohort (n=82)” value came to 2%. Also, the “sensitivity at start of study” value in test [7] (24 RA patients, nine positive in each treatment group) is 75%. For the same molecule, the “% of healthy controls reactive” value in test [3] (UK and US cohorts together) is listed as 2%. In addition, the “% positive, RA (n = 102)” value in test [3] was 37.3%. The “% positive, RA (n = 102)” value in test [3] (listed as 1A(CEP-1)) amounted to 37%. The “% of anti-CCP negative RA patients positive” value in test [3] (UK cohort, anti-CCP negative RA sera) worked out at 23%. The “% positive, non-RA patient controls (n=92)” value in test [3] (UK cohort, smaller disease control group) was 4.3%. Moreover, in test [3] (UK cohort), the “% positive, Disease controls (n = 110)” value stood at 3%; the “% positive, Healthy controls (n = 92)” value is 2.2% and 2%. Besides, the “% positive, Healthy controls (n = 92)” value in test [3] (UK cohort, listed as 1A(CEP-1)) is recorded as 2%. Also, the “specificity for RA” value in test [3] (UK cohort, disease controls (92 or 110) and 92 healthy controls) is 97%. In addition, the “anti-CEP-1 antibody status of patients with SLE and Behçet's disease” value in test [3] (UK disease controls) was “uniformly negative”. Moreover, in test [3] (summary statement), the “% of individuals without rheumatoid arthritis scored positive” value is “about 3% and ~2%”.

`CN(Cc1cnc2nc(N)nc(N)c2n1)c1ccc(C(=O)N[C@@H](CCC(=O)O)C(=O)O)cc1` [MTX, methotrexate]: the “DAS28 (CRP and ESR) change” value in test [8] is reported as “did not result in such statistically significant decrease; also recorded: did not change significantly”. For the same molecule, the “anti-Peptide 1A antibody levels over time” value in test [7] (pre-treatment, 6, 18 and 52 weeks, not statistically significant) is “increased”.

As to “cangwgvmvsh-X-sgetedtc (CANGWGVMVSH[Cit]SGETEDTC; disulfide 1-20 (inferred); listed as Homo sapiens) [Peptide 7, human α-enolase aa 362-379]”, the “inhibition of antibody binding” value in test [4] is recorded as “no inhibition”. The “inhibition of antibody binding” value in test [4] (listed as peptide 7) is reported as “did not result in decreased antibody binding”. Further, in test [2], the “% of SLE sera scored positive” value was determined as 3.4%. Moreover, the “% positive, RA (n = 102)” value in test [3] amounted to 4%. Also, in test [3] (UK cohort), the “% positive, Disease controls (n = 110)” value is 2% and the “% positive, Healthy controls (n = 92)” value was 2%.
